# “And” between values parts separate entries of the source, which are not always exact repeats. Equal values may be shown once.
# Columns and labels:
# retina (rat) [1] = test: Retinal light damage in rats, histopathology and retinal thickness (Experiment 2 (B-1)); type: in vivo; design: key to Vacuolation of retinal pigment epithelium / Disarrangement or vacuolation of inner and outer segments of visual cells / Infiltration of macrophage / Pyknosis and nuclear disappearance in outer nuclear layer / Thinning of retinal entire layer: -: not observable; ±: slightly observable; +: observable; ++: remarkably observable; settings: for Vacuolation of retinal pigment epithelium / Disarrangement or vacuolation of inner and outer segments of visual cells / Infiltration of macrophage / Pyknosis and nuclear disappearance in outer nuclear layer / Thinning of retinal entire layer: one line per animal
# Method: (§1) (B) In vivo experiment by light exposure in rats
# (§2) (B-1) Evaluation by retinal pathological tissues and rhodopsin amount
# (§3) Rats were subjected to dark adaptation for 72 hours. Then the rats were irradiated continuously for 12 hours using a green fluorescent lamp (10 W, 490-580 nm), the illumination intensity of which was adjusted to 2000 to 2400 lux. A suspension of 1.5% or 5.0% 2-O-octadecylascorbic acid was orally administered three times a day (90, 300 mg/kg/day) on the day of light exposure, and once a day (30, 100 mg/kg/day) after that. To the control group was administered 5.0% gum arabic solution (control) according to the same schedule. After completion of the light exposure, the rats were reared in a dark room and sacrificed on the 5th day. The right eyes were marked with ink in the upper part and fixed with 2% paraformaldehyde and 2% glutaraldehyde solutions. Histopathological evaluation was made using a light microscope and the thickness of retinae (thickness of retinal entire layer and outer nuclear layer) was measured. The left eyes were stored under freezing conditions at -20° C. for rhodopsin determination after removal of the cornea, lens and vitreous body.
# mice = test: Acute toxicity test in mice (Experiment 3); type: in vivo
# Method: Acute toxicity test of 2-O-octadecylascorbic acid
# 2-O-octadecylascorbic acid was tested for the acute toxicity test in mice. As a result, no mouse died even in oral administration of 1000 mg/kg. This compound has therefore low toxicity.
# retinal rhodopsin = test: Retinal light damage in rats, retinal rhodopsin amount (Experiment 2 (B-1)); type: in vivo; settings: for Amount of retinal rhodopsin: mean ± S.D.
# Method: as §1, §2, §3
# Rhodopsin was determined as follows. Firstly, the optic cup was sliced under a red lamp in a dark room, and retinal homogenates were prepared using 0.1M phosphate buffer (pH 7.2). After centrifugation at 15,000 rpm for 15 minutes, the precipitation was treated with 4% potassium alum solution. After washing, rhodopsin was extracted with 1% Emulphogen BC-720 (trade mark). The absorbance at 500 nm was measured using the centrifuged supernatant as the sample. The sample was bleached by light exposure with a yellow lamp for 5 minutes. The absorbance at 500 nm was measured again. The rhodopsin amount was calculated from the difference between the absorbances before and after the bleach (molar absorption coefficient: 42,000).
# retina (rat) [2] = test: Retinal peroxidation induced by intravitreous injection of ferrous sulfate in rats, retinal TBA values (Experiment 1 (B-1)); type: in vivo, SD rats; settings: 1.5% suspension, 30 mg/kg oral
# Method: (B) In vivo experiment in rats by intravitreous injection of ferrous ion:
# (B-1) Evaluation by retinal TBA values
# Antioxidative effects of oral administration of a suspension of 2-O-octadecylascorbic acid (30 mg/kg) on the retinal peroxidation induced by intravitreous injection of ferrous sulfate in rats were examined.
# Seven weeks old SD rats fasted from the previous day were divided into 2 groups. A 5% solution of gum arabic (control)(2 ml/kg) was administered orally to one group in 3 divided portions. A 1.5% suspension (2 ml/kg) of 2-O-octadecylascorbic acid (30 mg/kg) was administered orally to the other group in 3 divided portions. Two hours after the first administration, rats were anesthetized systemically with ketamine hydrochloride. A 5 mM solution (5 μl) of ferrous sulfate was injected intravitreously into each of the left eyes, and physiological saline (5 μl) was injected intravitreously into each of the right eyes. Each injection was carried out using a microsyringe. One and four hours after the injection, a suspension of 2-O-octadecylascorbic acid or a 5% solution of gum arabic were administered again. Two hours after the third administration (i.e. six hours after the injection of ferrous ion), the rats were sacrificed. The eyeballs were removed, retinal homogenates were prepared from the eyes, and the TBA values and protein were determined.
# retina (ERG in rats) = test: ERG in rats after light exposure for 3 days (Experiment 2 (B-2), Method 1); type: in vivo; settings: 5.0% suspension, oral 200 mg/kg/day on day of light exposure, 100 mg/kg/day other days; light 3 days
# Method: FIG. 4 is a graph showing the b-wave amplitude of ERG in rats after light exposure for 3 days in Experiment 2 (B-2)(Method 1). The abscissa indicates time (day) after light exposure and the ordinate indicates b-wave amplitude (mv).
# (B-2) Evaluation by ERG determination
# Rats were subjected to dark adaptation for 24 hours. Continuous light exposure for 20 hours was repeated for 3 successive days using a green fluorescent lamp (490-580 nm), the illumination intensity of which was adjusted to 600 to 700 lux. ERG was measured for 3 successive days after dark adaptation for 2 hours after completion of everyday light exposure. After that, the rats were reared in a dark room, and ERG was measured on the 7th day after the light exposure, and evaluated for the amplitude of a-wave and b-wave and the latency of a-wave. From the day before the light exposure, a 5.0% 2-O-octadecylascorbic acid suspension or 5.0% gum arabic solution (control) was orally administered twice a day (200 mg/kg/day) on the day of the light exposure and once a day (100 mg/kg/day) on other days.
# [3] = test system: bovine retinal homogenates; test: Peroxidation of bovine retinal homogenate by light exposure in presence of hematoporphyrin, TBA value (Experiment 2 (A)); type: biochemical; settings: 10^-4 M
# Method: (A) In vitro experiment using bovine retinal homogenates
# Antioxidative effects of 2-O-octadecylascorbic acid on peroxidation caused by light exposure of bovine retinal homogenates in the presence of hematoporphyrin (hereinafter referred to as HPP) were examined.
# (1) HPP (100 μM, dissolved in ethanol), 2-O-octadecylascorbic acid (10^-4 M) and water were added to a retinal homogenate prepared by the same manner as that of the above Experiment 1 (A) Method (1). The mixture was irradiated with a fluorescent lamp (daylight lamp, 15 W, 3000 lux) from 20 cm above for 1 hour. The final concentration of ethanol in the reaction mixture was adjusted to 2%.
# (2) One hour after the light exposure, according to the same manner as that of the above Experiment 1 (A) Method (3), lipidperoxides were determined by the TBA reaction and proteins were determined using Bio-Rad Protein Assay Kit (trade name).
# [4] = 1.5% suspension, mean ± S.D., n=5
# [5] = 1.5% suspension, Nos. 1-5 in order
# [6] = 5.0% suspension, mean ± S.D., n=3
# [7] = 5.0% suspension, Nos. 1-3 in order
smiles,measurement,setting,value
CCCCCCCCCCCCCCCCCCOC1=C(O)[C@@H]([C@@H](O)CO)OC1=O [2-O-octadecylascorbic acid],examples (animals) with remarkably observed retinal lesions,retina (rat) [1]; 1.5% suspension,four of five examples
same,Vacuolation of retinal pigment epithelium,"retina (rat) [1]; 1.5% suspension (90 mg/kg/day oral on day of exposure, then 30), Nos. 1-5 in order",+
same,"Thickness of outer nuclear layer, lesion",retina (rat) [1]; [4],16.0 ± 7.2 µM
same,"Thickness of outer nuclear layer, near optic disk",retina (rat) [1]; [4],39.0 ± 8.8 µM
same,"Thickness of retinal entire layer, lesion",retina (rat) [1]; [4],88.5 ± 22.3 µM
same,"Thickness of retinal entire layer, near optic disk",retina (rat) [1]; [4],135.5 ± 27.9 µM
same,Disarrangement or vacuolation of inner and outer segments of visual cells,retina (rat) [1]; [5],++ (4×) and +
same,Infiltration of macrophage,retina (rat) [1]; [5],++ (4×) and -
same,Pyknosis and nuclear disappearance in outer nuclear layer,retina (rat) [1]; [5],++ (4×) and ±
same,Thinning of retinal entire layer,retina (rat) [1]; [5],++ (4×) and -
same,examples (animals) with remarkably observed retinal lesions,retina (rat) [1]; 5.0% suspension,one of three examples
same,Vacuolation of retinal pigment epithelium,"retina (rat) [1]; 5.0% suspension (300 mg/kg/day oral on day of exposure, then 100), Nos. 1-3 in order",- and + (2×)
same,thickness of the retinal entire layer near optic disk (in words),"retina (rat) [1]; 5.0% suspension, compared with control",significantly larger than that in the control group
same,severity of lesions,"retina (rat) [1]; 5.0% suspension, compared with control group",not so severe as those of the control group
same,"Thickness of outer nuclear layer, lesion",retina (rat) [1]; [6],19.2 ± 11.3 µM
same,"Thickness of outer nuclear layer, near optic disk",retina (rat) [1]; [6],48.3 ± 1.4 µM
same,"Thickness of retinal entire layer, lesion",retina (rat) [1]; [6],84.2 ± 16.3 µM
same,Disarrangement or vacuolation of inner and outer segments of visual cells,retina (rat) [1]; [7],± and + and ++
same,Infiltration of macrophage,retina (rat) [1]; [7],- (2×) and ++
same,Pyknosis and nuclear disappearance in outer nuclear layer,retina (rat) [1]; [7],± and + and ++
same,Thinning of retinal entire layer,retina (rat) [1]; [7],- and + and ++
same,thickness of the outer nuclear layer near optic disk (in words),"retina (rat) [1]; suspension administered groups, compared with control",tends to be larger than that in the control group
same,toxicity,"mice; acute toxicity, mice, oral",low toxicity
same,mortality,"mice; mouse, in vivo, po, 1000 mg/kg",no mouse died
same,Amount of retinal rhodopsin,"retinal rhodopsin; 1.5% suspension, n=5",0.51 ± 0.20 nM/eye
same,Amount of retinal rhodopsin,"retinal rhodopsin; 5.0% suspension, n=3",0.69 ± 0.14 nM/eye
same,decrease of the amount of rhodopsin by light exposure (in words),retinal rhodopsin; suspension administered groups,the tendency to inhibit the decrease of the amount of rhodopsin by light exposure was observed
same,increase in the TBA value of the retina induced by intravitreous injection of ferrous ion,retina (rat) [2],significantly inhibited the increase in the TBA value of the retina
same,"Retina: TBA value, left eye","retina (rat) [2]; left eye (ferrous sulfate injected), mean ± S.D., n=6, p < 0.01 vs control",0.47 ± 0.11 nM malondialdehyde/mg protein
same,"Retina: TBA value, right eye","retina (rat) [2]; right eye (physiological saline injected), mean ± S.D., n=6",0.36 ± 0.06 nM malondialdehyde/mg protein
same,decrease of the b-wave amplitude,retina (ERG in rats),the tendency to inhibit the decrease of the b-wave amplitude was observed
same,inhibitory effect on light-induced peroxidation,[3],significant inhibitory effect was observed
same,Retina: TBA value,"[3]; HPP 100 μM, light 3000 lux 1 hour, mean ± S.D., n=3, p < 0.001 vs control",1.31 ± 0.21 nM malondialdehyde/mg protein

# Source: patent US5665769A, “Pharmaceutical composition for preventing and treating retinal diseases” (Senju Pharmaceuticals Co., Ltd., priority 1993, dated 1997)
